Results from US20170280720A1, “ARGININE […] INHIBITORS AND USES THEREOF” (EPIZYME, INC., priority 2014, published 2017).

Legend:
[1] = molecular target: T1, Human CARM1 (PRMT4) (Homo sapiens, UniProt Q86X55); assay: CARM1 biochemical assay (3H-SAM Flashplate, peptide substrate); settings: read-out: CARM1_ IC50
T1 construct: Flag-CARM1-His; made in house; host or cells: HEK 293F cells (BacMam baculovirus, pFastBacMam)
T1 sequence (Q86X55 2-585 isoform Q86X55-1): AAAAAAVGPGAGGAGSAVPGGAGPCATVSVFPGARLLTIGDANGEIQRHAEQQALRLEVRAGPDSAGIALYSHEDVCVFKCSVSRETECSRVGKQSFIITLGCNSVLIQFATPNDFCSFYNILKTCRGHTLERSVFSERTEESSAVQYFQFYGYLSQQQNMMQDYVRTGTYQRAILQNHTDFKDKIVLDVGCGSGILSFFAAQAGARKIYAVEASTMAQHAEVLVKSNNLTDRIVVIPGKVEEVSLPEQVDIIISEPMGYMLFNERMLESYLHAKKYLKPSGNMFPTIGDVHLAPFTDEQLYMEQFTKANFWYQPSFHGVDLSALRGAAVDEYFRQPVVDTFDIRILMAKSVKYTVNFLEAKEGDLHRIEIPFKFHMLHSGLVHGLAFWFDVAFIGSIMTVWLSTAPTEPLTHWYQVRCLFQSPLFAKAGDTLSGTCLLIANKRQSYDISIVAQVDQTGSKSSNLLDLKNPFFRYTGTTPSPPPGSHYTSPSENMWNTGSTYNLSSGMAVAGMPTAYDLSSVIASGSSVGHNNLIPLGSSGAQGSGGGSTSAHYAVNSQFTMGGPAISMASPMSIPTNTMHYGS
Summary of the method: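 FLAG/His-tagged human CARM1 (isoform 1, Δ539-561, baculovirus-expressed), 0.25 nM, preincubated 30 min at room temperature with compound (2% DMSO) in 20 mM Bicine pH 7.6, then reacted with 30 nM 3H-SAM and 250 nM biotinylated H3 16-30 peptide (R26 monomethyl). Stopped with 300 uM cold SAM; labelled peptide captured on streptavidin Flashplate; % inhibition versus DMSO and 1 mM SAH controls fitted to a 4- or 3-parameter curve.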

[2] = molecular target: PRMT5 (Homo sapiens, UniProt O14744); assay: PRMT5 IC50 (Table 2; no method described); type: biochemical; settings: read-out: PRMT5_ IC50
Sequence of PRMT5 (O14744 whole entry, species assumed): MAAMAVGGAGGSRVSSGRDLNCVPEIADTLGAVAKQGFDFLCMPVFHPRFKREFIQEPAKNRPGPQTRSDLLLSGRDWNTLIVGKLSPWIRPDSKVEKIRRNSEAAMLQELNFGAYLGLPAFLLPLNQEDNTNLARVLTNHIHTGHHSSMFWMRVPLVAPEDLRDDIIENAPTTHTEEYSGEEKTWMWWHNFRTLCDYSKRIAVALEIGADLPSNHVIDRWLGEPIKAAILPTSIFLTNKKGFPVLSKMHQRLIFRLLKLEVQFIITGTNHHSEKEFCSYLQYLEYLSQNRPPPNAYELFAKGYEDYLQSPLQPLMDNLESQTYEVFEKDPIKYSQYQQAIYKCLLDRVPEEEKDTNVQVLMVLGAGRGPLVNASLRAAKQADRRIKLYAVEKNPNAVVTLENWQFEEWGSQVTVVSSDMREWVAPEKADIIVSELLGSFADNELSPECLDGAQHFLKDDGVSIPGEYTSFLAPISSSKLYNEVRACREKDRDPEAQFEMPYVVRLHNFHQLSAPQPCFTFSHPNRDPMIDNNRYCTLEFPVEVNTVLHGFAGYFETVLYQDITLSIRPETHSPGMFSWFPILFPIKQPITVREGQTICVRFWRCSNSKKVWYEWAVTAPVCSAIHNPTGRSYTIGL
Sequence of PRMT5 (Q9BQA1 whole entry partner, species assumed): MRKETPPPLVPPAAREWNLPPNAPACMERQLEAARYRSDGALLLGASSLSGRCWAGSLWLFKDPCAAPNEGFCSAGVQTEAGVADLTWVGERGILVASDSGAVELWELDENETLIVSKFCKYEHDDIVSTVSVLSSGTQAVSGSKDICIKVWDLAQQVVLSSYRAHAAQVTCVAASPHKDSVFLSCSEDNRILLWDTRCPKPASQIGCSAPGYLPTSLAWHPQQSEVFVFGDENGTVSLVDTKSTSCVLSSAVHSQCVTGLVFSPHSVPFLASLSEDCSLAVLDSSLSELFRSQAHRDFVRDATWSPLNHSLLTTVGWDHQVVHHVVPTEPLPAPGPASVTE

Row | IC50 [1] | IC50 [2] | SMILES
1 | 2840 nM | 371 nM | Cc1ccc(-n2cnc3cc(-c4ccc(CNCCN)cc4)ccc32)cc1 [Compound 131]
2 | 7210 nM | 57.2 nM | COc1ccc(Cn2cnc3ccc(-c4ccc(CNCCN)cc4)cc32)cc1 [Compound 132]
3 | 4920 nM | 169 nM | COc1cccc(Cc2nc3ccc(-c4ccc(CNCCN)cc4)cc3n2C(C)C)c1 [Compound 135]
4 | 5810 nM | 327 nM | Cc1cc2cc(-c3ccc(CNCCN)cc3)ccc2[nH]1 [Compound 141]
5 | 5620 nM | 281 nM | Cc1cccc(CCn2cnc3ccc(-c4ccc(CNCCN)cc4)cc32)c1 [Compound 143]
6 | 8000 nM | 79.9 nM | N#Cc1cccc(Cn2cnc3ccc(-c4ccc(CNCCN)cc4)cc32)c1 [Compound 145]
7 | 4600 nM | 418 nM | NCCNCc1ccc(-c2ccc3ncn(C4CCNCC4)c3c2)cc1 [Compound 157]
8 | 31700 nM | 404 nM | CC(C)n1cnc2ccc(-c3ccc(CNCCN)cc3)cc21 [Compound 166]

Continued, compound first:

Row | SMILES | IC50 [1] | IC50 [2]
9 | CC(C)n1ncc2c(C(=O)N[C@@H](C)c3ccccc3)cc(-c3cccc(CN(C)CCN)c3)nc21 [Compound 136] | 45.5 nM | 50000 nM
10 | CC(C)n1ncc2c(C(=O)NCc3ccncc3)cc(-c3cccc(CNCCN)c3)nc21 [Compound 150] | 274 nM | 23900 nM
11 | NCCNCc1ccc(-c2cnc3c(c2)CCC(=O)N3)cc1 [Compound 156] | 2610 nM | 338 nM
12 | CC(C)n1ncc2c(C(=O)N[C@@H](C)c3ccccc3)cc(-c3cccc(CNCCN)c3)nc21 [Compound 160] | 28 nM | 35900 nM
13 | CC(C)n1ncc2c(C(=O)NCC3CCN(C)CC3)cc(-c3cccc(CN(C)CCN(C)C)c3)nc21 [Compound 162] | 91.6 nM | 50000 nM
14 | COc1cccc(CNC(=O)c2cncc(-c3ccc(CNCCN)cc3)c2)c1 [Compound 356] | 24300 nM | 377 nM
